Source: PubChem BioAssay (NCI)
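Each compound was tested at five concentrations against cells in 96-well plates for 48 hours. At the GI50, growth is halved. Definition used: TGI = concentration required for complete inhibition of growth.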

How the values were obtained:
Assay in all cases: NCI-60 cell line screen, 48 h
[1] = test system: NCI/ADR-RES ovarian
[2] = test system: SK-MEL-2 melanoma
[3] = test system: TK-10 renal
[4] = test system: UACC-62 melanoma
[5] = test system: EKVX NSCLC
[6] = test system: RPMI-8226 leukemia
[7] = test system: SNB-19 CNS
[8] = test system: ACHN renal
[9] = test system: CAKI-1 renal
[10] = test system: BT-549 breast
[11] = test system: CCRF-CEM leukemia
[12] = test system: RXF 393 renal
[13] = test system: SF-539 CNS
[14] = test system: HOP-62 NSCLC
[15] = test system: MALME-3M melanoma
[16] = test system: SF-295 CNS
[17] = test system: T-47D breast
[18] = test system: SK-OV-3 ovarian
[19] = test system: OVCAR-3 ovarian
[20] = test system: HCC-2998 colon
[21] = test system: OVCAR-8 ovarian
[22] = test system: NCI-H522 lung
[23] = test system: U251 CNS
[24] = test system: HT29 colon
[25] = test system: UACC-257 melanoma
[26] = test system: SW-620 colon
[27] = test system: M14 melanoma
[28] = test system: A498 renal
[29] = test system: HS 578T breast
[30] = test system: KM12 colon
[31] = test system: 786-0 renal
[32] = test system: OVCAR-4 ovarian
[33] = test system: SK-MEL-5 melanoma
[34] = test system: NCI-H460 lung
[35] = test system: HCT-116 colon
[36] = test system: SNB-75 CNS
[37] = test system: MDA-MB-468 breast
[38] = test system: HL-60(TB) leukemia
[39] = test system: UO-31 renal
[40] = test system: HCT-15 colon
[41] = test system: A549 NSCLC
[42] = test system: OVCAR-5 ovarian
[43] = test system: SN12C renal
[44] = test system: SK-MEL-28 melanoma
[45] = test system: MDA-MB-435
[46] = test system: COLO 205 colon
[47] = test system: NCI-H23 lung
[48] = test system: IGROV1 ovarian
[49] = test system: K-562 leukemia
[50] = test system: LOX IMVI melanoma
[51] = test system: MDA-MB-231 breast
[52] = test system: PC-3 prostate
[53] = test system: SR leukemia
[54] = test system: SF-268 CNS
[55] = test system: MOLT-4 leukemia
[56] = test system: HOP-92 NSCLC
[57] = test system: DU-145 prostate
[58] = test system: NCI-H226 lung
[59] = test system: MCF7 breast

COc1ccc(Cc2nn(CC(=O)N/N=C/c3ccc(F)cc3)c(=O)c3c(C)noc23)cc1
GI50 [1]: 4.03 µM | TGI [1]: 17.2 µM | GI50 [2]: 12.1 µM | TGI [2]: 29.5 µM | GI50 [3]: 2.4 µM | TGI [3]: 6.39 µM | GI50 [4]: 8.63 µM | TGI [4]: 25.1 µM | GI50 [5]: 4.39 µM | TGI [5]: 21.4 µM | GI50 [6]: 9.01 µM | TGI [6]: > 100 µM | GI50 [7]: 4.48 µM | TGI [7]: 20.4 µM | GI50 [8]: 1.95 µM | TGI [8]: 3.83 µM | GI50 [9]: 2.02 µM | TGI [9]: 4.62 µM | GI50 [10]: 12.2 µM | TGI [10]: 35.7 µM | GI50 [11]: 9.65 µM | TGI [11]: > 100 µM | GI50 [12]: 2.42 µM | TGI [12]: 6.47 µM | GI50 [13]: 10.5 µM | TGI [13]: 22.8 µM | GI50 [14]: 1.93 µM | TGI [14]: 4.04 µM | GI50 [15]: 3.63 µM | TGI [15]: 15 µM | GI50 [16]: 2.07 µM | TGI [16]: 4.86 µM | GI50 [17]: 2.24 µM | TGI [17]: 5.88 µM | GI50 [18]: 1.99 µM | TGI [18]: 3.97 µM | GI50 [19]: 3.44 µM | TGI [19]: 11.2 µM | GI50 [20]: 5.46 µM | TGI [20]: 19.7 µM | GI50 [21]: 6.96 µM | TGI [21]: 60.6 µM | GI50 [22]: 10.4 µM | TGI [22]: 31.2 µM | GI50 [23]: 2.65 µM | TGI [23]: 8.07 µM | GI50 [24]: 10.9 µM | TGI [24]: 25.5 µM | GI50 [25]: 6.33 µM | TGI [25]: 29.1 µM | GI50 [26]: 5.59 µM | TGI [26]: 22.9 µM | GI50 [27]: 8.67 µM | TGI [27]: 38 µM | GI50 [28]: 1.83 µM | TGI [28]: 3.73 µM | GI50 [29]: 3.19 µM | TGI [29]: 15.1 µM | GI50 [30]: 26.5 µM | TGI [30]: > 100 µM | GI50 [31]: 2.12 µM | TGI [31]: 4.63 µM | GI50 [32]: 1.8 µM | TGI [32]: 3.47 µM | GI50 [33]: 12.8 µM | TGI [33]: 33.4 µM | GI50 [34]: 3.27 µM | TGI [34]: 11.3 µM | GI50 [35]: 2.47 µM | TGI [35]: 6.77 µM | GI50 [36]: 2 µM | TGI [36]: 4.49 µM | GI50 [37]: 3.87 µM | TGI [37]: 17.7 µM | GI50 [38]: 68.8 µM | TGI [38]: > 100 µM | GI50 [39]: 1.79 µM | TGI [39]: 3.84 µM | GI50 [40]: 9.27 µM | TGI [40]: 89.3 µM | GI50 [41]: 3.02 µM | TGI [41]: 10.1 µM | GI50 [42]: 7.18 µM | TGI [42]: 25.1 µM | GI50 [43]: 2.36 µM | TGI [43]: 6.08 µM | GI50 [44]: 6.9 µM | TGI [44]: 21.8 µM | GI50 [45]: 9.52 µM | TGI [45]: 31.3 µM | GI50 [46]: 8.3 µM | TGI [46]: 35.2 µM | GI50 [47]: 6.72 µM | TGI [47]: 20.9 µM | GI50 [48]: 7.58 µM | TGI [48]: 22.8 µM | GI50 [49]: 31.4 µM | TGI [49]: > 100 µM | GI50 [50]: 4.65 µM | TGI [50]: 22 µM | GI50 [51]: 5.66 µM | TGI [51]: 19.5 µM | GI50 [52]: 5.43 µM | TGI [52]: 23.4 µM | GI50 [53]: 16.1 µM | TGI [53]: > 100 µM | GI50 [54]: 5.81 µM | TGI [54]: 36.9 µM | GI50 [55]: 22.6 µM | TGI [55]: > 100 µM | GI50 [56]: 2.34 µM | TGI [56]: 6.97 µM | GI50 [57]: 5.87 µM | TGI [57]: 18.8 µM | GI50 [58]: 1.8 µM | TGI [58]: 4.61 µM | GI50 [59]: 8.44 µM | TGI [59]: 35.1 µM
